Test results: patent publication EP2103614A1, “Substituted imidazopyrimidine, imidazopyrazine and imidazopyridazine derivatives as melanocortin-4 receptor modulators” (Santhera Pharmaceuticals (Schweiz) AG, priority 2008, dated 2009)
Where two headings read alike, the source gives them in different places.

How the values were obtained:
hMC-4R [1] = target: T1, hMC-4R (Homo sapiens, UniProt P32245); assay: Membrane binding assay (fluorescence polarization, competition with fluorescence labeled NDP-alpha-MSH)
T1 construct: expressed in transfected cells; host or cells: HEK293
T1 sequence (P32245 whole entry): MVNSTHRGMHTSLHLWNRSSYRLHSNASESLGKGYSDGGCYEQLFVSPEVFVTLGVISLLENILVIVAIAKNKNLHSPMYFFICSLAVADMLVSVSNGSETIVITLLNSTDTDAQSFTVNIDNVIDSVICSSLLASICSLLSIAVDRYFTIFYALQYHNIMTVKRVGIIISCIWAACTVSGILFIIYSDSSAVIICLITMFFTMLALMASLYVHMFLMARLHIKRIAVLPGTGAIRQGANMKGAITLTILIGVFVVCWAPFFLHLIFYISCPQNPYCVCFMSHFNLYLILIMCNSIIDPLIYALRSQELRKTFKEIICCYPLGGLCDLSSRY

hMC-4R [2] = target: T1, hMC-4R; assay: Functional assay (membrane based cAMP fluorescence polarization, agonistic activity); type: biochemical; conditions: cAMP produced compared to stimulation with NDP-alpha-MSH; read-out: % activation functional assay
Experimental: Agonistic activity of human melanocortin receptors is determined in a homogeneous membrane based assay.
Membrane preparations from HEK293 cells expressing the human melanocortin receptors are added. After a short preincubation period, an appropriate amount of ATP, GTP and the cAMP antibody is added and the plate is further incubated before the fluorescence labeled cAMP conjugate is dispensed. The plate is incubated for 2 h at 4°C before it is read on a fluorescence polarization microplate reader. The amount of cAMP produced as a response to a test compound is compared to the production of cAMP resulting from stimulation with NDP-alpha-MSH.

[3] = HEK293 cell membrane preparations expressing human melanocortin receptors, 5 h at room temperature, read-out: hMC-4R binding assay IC50/µM

| SMILES | IC50 (hMC-4R [1]) [µM] | Emax (hMC-4R [2]) [%] | IC50 (hMC-4R [1]; [3]) [µM] |
| --- | --- | --- | --- |
| CC(C)CCN(CCC(C)C)C(=O)c1ccc2nc(-c3ccc4c(c3)OCCO4)c(CCCN)n2n1 [Example 2] | 1.1 | 0 |  |
| CC(C)CCN(CCC(C)C)C(=O)c1cn2c(CCCN3CCCC3)c(-c3ccc(C#N)cc3)nc2cn1 [Example 7] | 0.02 | 0 |  |
| CC(C)CCN(CCC(C)C)C(=O)c1ccc2nc(-c3ccc(C#N)cc3)c(CCCN3CCCC3)n2n1 [Example 4] | 0.3 | 0 |  |
| CC(C)CCN(CCC(C)C)C(=O)c1cnc2nc(-c3ccc(C#N)cc3)c(CCCN3CCCC3)n2c1 [Example 5] | 0.18 | 0 |  |
| CC(C)CCN(CCC(C)C)C(=O)c1ccc2nc(-c3ccc4c(c3)OCCO4)c(CCCN3CCCCC3)n2n1 [Example 3] |  | 0 | 0.12 |
| CC(C)CCN(CCC(C)C)C(=O)c1cnc2nc(-c3ccc(C#N)cc3)c(CCCN(C)C)n2c1 [Example 6] | 1 | 0 |  |
| COc1ccc(Nc2nc3ccc(C(=O)N(CCC(C)C)CCC(C)C)nn3c2CCCN)cc1 [Example 1] | 0.49 | 0 |  |
| CC(C)CCN(CCC(C)C)C(=O)c1cn2c(CCCN(C)C)c(-c3ccc(C(N)=O)cc3)nc2cn1 [Example 10] | 0.28 | 0 |  |
| CC(C)CCN(CCC(C)C)C(=O)c1cn2c(CCCN3CCCC3)c(-c3ccc(C(N)=O)cc3)nc2cn1 [Example 9] |  | 0 | 0.048 |
| CC(C)CCN(CCC(C)C)C(=O)c1cn2c(CCCN(C)C)c(-c3ccc(C#N)cc3)nc2cn1 [Example 8] |  | 0 | 0.19 |
